Data reported in patent US12240844B2 (Voronoi, Inc., priority 2019, dated 2025).

Tests used:
[1] = target: T1, LRRK2, LRRK2 (G2019S), DYRK1, CLK1 and TTK kinases (Homo sapiens, UniProt P49759); assay: Enzyme IC50 by Kinase HotSpot service (Reaction Biology Corporation), values marked with *; format: biochemical; details: CLK1, ATP 10 uM
T1 construct: CLK1 IC50 (marked with *); other: CLK1; Kinase HotSpot service (Reaction Biology), ATP 10 uM
Method: (§1) Meanwhile, the enzyme IC50 measurement for some compounds was performed using Kinase HotSpot service (Reaction Biology Corporation); during the test, the ATP concentration was 10 uM, where all were conducted under the same condition; and the concentration of the compound was measured by giving a 3-fold concentration gradient with the highest concentration of […], where the values measured using Kinase HotSpot service (Reaction Biology Corporation) were marked with “*”.
(§2) All experimental methods were performed as provided in Kinase HotSpot Customer Protocol (http://www.reactionbiology.com//Kinase_Assay_Protocol).
(§3) In the table below, the following designations were used for the evaluation of enzyme inhibitory ability.

[2] = target: T2, LRRK2, LRRK2 (G2019S), DYRK1, CLK1 and TTK kinases (Homo sapiens, UniProt Q13627); assay: as above; format: biochemical; details: DYRK1, ATP 10 uM
T2 construct: other: DYRK1; Kinase HotSpot service (Reaction Biology), ATP 10 uM
Method: as §1, §2, §3

[3] = target: T3, LRRK2, LRRK2 (G2019S), DYRK1, CLK1 and TTK kinases (Homo sapiens, UniProt Q5S007); assay: as above; format: biochemical; details: LRRK2, ATP 10 uM
T3 construct: LRRK2 IC50 (marked with *); other: LRRK2; Kinase HotSpot service (Reaction Biology), ATP 10 uM
Method: as §1, §2, §3

[4] = target: T4, LRRK2, LRRK2 (G2019S), DYRK1, CLK1 and TTK kinases (Homo sapiens, UniProt Q5S007, G2019S); assay: as above; format: biochemical; details: LRRK2 (G2019S), ATP 10 uM
T4 construct: other: LRRK2 (G2019S); Kinase HotSpot service (Reaction Biology), ATP 10 uM
Method: as §1, §2, §3

MDA-MB-231 cell line = assay: MDA-MB-231 cancer cell proliferation inhibition (Cell Titer-Glo); format: cell-based; details: Homo sapiens, MDA-MB-231 triple-negative breast cancer cell line, 72 hours
Procedure, shortened: (§4)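 GI50 comes from CellTiter-Glo luminescence, read 10 min after reagent addition at RT, following 72 h compound treatment. Eleven concentrations were used (⅓ steps, highest 10 μM final) on 2000 cells/well. MDA-MB-231 and MDA-MB-468 were grown in DMEM, SHP-77 in RPMI.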

SHP-77 = SHP-77 cancer cell proliferation inhibition (Cell Titer-Glo); format: cell-based; details: Homo sapiens, SHP77, SHP-77 small cell lung cancer cell line, 72 hours
Procedure, shortened: as §4

human DYRK1A and Tau = assay: Tau phosphorylation inhibition, ClariCELL Kinase Cell-Based Assay (Carnabio)
Procedure, shortened: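 HEK293 cells transiently expressing human DYRK1A and Tau were exposed to compound, then lysed. Released Tau was captured on plate and its phosphorylation quantified by ELISA with a phospho-Tau-specific antibody.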

TTK = target: T5, TTK (Homo sapiens, UniProt P33981); assay: TTK enzyme inhibition, ADP-Glo kinase assay; format: biochemical; set-up: purchased Signalchem T20-10G; details: ATP 5 μM
T5 sequence (P33981 1-857): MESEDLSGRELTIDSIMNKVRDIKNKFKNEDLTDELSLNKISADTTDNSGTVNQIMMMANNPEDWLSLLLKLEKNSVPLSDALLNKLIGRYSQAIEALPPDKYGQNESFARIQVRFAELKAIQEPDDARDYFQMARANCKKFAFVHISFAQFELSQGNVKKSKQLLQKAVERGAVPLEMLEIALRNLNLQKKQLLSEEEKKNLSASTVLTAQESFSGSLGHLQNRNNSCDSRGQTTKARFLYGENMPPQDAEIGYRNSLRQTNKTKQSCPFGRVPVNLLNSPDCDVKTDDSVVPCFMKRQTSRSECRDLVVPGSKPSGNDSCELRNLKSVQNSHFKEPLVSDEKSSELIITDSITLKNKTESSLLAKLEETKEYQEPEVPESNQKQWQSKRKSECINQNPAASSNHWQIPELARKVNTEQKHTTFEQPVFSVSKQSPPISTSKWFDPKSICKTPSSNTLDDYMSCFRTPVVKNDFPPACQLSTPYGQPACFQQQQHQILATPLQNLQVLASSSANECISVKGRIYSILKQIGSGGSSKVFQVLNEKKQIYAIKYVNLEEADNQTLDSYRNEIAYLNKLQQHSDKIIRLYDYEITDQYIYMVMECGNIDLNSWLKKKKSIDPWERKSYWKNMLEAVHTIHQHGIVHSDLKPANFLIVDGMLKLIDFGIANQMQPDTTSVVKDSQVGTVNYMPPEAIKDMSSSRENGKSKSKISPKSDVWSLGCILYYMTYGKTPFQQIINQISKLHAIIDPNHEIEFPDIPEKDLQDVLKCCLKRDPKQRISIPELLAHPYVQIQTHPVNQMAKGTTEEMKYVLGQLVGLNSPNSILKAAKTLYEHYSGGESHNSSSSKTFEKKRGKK
Method: In order to evaluate the inhibitory activity of the compounds according to the present invention on LRRK2, LRRK2 (G2019S), DYRK1, CLK1 and TTK kinases, the following experiment was performed.
Example compounds were reacted with the purified human TTK (Signalchem #T20-10G) enzyme to evaluate the enzyme inhibitory ability as follows. The reaction buffer was used as the composition of 40 mM Tris-HCl pH7.4, 20 mM MgCl2, 0.1 mg/ml BSA (5× kinase buffer, Signalchem #K03-09) and 50 μM DTT (Signalchem #D86-09B), and the reaction of all test materials was performed on the reaction buffer. The compound was diluted with 10 mM DMSO stock in […] by a serial dilution method, and the enzyme activity was measured at the final compound concentrations of 1, 0.333333, 0.111111, 0.037037, 0.012346, 0.004115, 0.001372, 0.000457, 0.000152, 0.000051 and 0.000017 μM. In the test, the human TTK (7.5 ng) enzyme was reacted with the purified ATP (5 μM, Promega #V6930) and an MBP enzyme substrate (0.2 μg, Signalchem M42-51N) at 25° C. for 4 hours, and then the enzyme activity was identified using the in vitro ADP-Glo™ kinase assay (Promega #V6930). The enzyme activity reaction liquid, an ADP-Glo reaction liquid and an enzyme potency detection solution were reacted in a ratio of 2:2:1, and the degree of inhibition of enzyme activity was measured by luminescence. The degree of inhibition of enzyme activity according to the treatment concentrations of the respective compounds was calculated based on the luminescence degree of the enzyme activity of a solvent control group that was not treated with the compound, where the concentration of each compound to inhibit enzyme activity inhibition by 50% was determined as an IC50 (nM) value and obtained using Prism (Version 8.2, GraphPad) software.
as §3

T4 sequence (Q5S007 whole entry G2019S): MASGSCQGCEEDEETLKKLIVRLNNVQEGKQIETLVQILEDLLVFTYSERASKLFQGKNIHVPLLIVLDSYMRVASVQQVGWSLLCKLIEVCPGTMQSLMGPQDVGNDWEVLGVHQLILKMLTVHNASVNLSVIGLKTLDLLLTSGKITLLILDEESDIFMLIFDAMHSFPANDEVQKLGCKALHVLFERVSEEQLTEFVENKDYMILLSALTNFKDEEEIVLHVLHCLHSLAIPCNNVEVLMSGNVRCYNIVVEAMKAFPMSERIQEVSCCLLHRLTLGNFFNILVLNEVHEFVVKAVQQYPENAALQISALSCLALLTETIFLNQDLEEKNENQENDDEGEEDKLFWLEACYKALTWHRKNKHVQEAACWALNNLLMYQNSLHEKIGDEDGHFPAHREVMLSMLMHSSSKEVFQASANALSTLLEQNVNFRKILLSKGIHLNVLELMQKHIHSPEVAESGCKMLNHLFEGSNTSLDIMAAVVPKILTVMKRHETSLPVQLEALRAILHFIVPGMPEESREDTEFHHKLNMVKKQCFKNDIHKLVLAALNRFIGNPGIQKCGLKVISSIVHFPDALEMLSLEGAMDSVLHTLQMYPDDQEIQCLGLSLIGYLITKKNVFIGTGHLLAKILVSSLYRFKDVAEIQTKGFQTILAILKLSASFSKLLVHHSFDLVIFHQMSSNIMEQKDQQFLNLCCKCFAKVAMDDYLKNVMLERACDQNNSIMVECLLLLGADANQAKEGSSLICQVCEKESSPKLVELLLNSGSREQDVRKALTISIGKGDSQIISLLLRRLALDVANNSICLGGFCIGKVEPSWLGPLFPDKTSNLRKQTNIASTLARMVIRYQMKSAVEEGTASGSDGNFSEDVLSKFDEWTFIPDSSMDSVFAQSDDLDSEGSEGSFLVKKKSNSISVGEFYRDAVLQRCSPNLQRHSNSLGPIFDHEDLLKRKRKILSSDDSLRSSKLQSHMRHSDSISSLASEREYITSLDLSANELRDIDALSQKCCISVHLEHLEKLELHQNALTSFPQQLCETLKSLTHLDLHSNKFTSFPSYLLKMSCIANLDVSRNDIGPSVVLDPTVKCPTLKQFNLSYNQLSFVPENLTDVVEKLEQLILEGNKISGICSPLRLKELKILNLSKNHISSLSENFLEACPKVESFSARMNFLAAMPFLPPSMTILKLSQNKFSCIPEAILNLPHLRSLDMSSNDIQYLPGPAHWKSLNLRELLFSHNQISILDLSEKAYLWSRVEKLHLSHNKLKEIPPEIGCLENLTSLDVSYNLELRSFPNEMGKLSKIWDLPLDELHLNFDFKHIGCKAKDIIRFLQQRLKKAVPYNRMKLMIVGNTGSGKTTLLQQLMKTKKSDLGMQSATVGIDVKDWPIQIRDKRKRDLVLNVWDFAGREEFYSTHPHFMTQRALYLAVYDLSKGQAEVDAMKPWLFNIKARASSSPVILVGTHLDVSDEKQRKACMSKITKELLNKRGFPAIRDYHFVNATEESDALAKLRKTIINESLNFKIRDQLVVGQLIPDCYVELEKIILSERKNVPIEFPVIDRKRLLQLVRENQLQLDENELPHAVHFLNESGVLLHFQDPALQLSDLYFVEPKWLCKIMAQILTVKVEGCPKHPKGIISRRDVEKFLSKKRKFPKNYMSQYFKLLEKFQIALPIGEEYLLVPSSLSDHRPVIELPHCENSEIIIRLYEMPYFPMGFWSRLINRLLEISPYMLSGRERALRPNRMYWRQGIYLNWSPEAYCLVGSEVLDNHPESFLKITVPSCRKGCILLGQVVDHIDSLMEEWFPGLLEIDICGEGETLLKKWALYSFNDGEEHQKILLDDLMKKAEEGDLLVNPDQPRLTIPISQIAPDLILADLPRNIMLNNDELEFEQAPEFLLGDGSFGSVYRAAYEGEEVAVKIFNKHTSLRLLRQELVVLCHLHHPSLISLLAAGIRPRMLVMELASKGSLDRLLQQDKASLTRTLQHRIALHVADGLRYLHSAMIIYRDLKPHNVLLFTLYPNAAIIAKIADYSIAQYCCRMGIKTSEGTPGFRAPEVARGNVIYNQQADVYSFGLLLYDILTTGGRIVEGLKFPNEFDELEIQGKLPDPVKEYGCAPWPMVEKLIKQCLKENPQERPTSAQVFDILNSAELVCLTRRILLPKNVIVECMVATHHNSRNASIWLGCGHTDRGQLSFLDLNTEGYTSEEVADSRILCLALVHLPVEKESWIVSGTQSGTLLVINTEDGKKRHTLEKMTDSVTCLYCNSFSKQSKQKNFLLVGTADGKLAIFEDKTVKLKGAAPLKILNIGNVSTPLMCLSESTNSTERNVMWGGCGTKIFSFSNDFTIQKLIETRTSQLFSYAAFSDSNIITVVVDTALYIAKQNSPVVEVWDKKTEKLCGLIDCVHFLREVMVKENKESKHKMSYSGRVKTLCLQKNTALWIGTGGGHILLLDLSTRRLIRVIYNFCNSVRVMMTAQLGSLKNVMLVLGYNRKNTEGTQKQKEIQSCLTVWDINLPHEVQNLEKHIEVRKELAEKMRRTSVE
T3 sequence (Q5S007 whole entry G2019S): as above
T1 sequence (P49759 whole entry, stated change not applied): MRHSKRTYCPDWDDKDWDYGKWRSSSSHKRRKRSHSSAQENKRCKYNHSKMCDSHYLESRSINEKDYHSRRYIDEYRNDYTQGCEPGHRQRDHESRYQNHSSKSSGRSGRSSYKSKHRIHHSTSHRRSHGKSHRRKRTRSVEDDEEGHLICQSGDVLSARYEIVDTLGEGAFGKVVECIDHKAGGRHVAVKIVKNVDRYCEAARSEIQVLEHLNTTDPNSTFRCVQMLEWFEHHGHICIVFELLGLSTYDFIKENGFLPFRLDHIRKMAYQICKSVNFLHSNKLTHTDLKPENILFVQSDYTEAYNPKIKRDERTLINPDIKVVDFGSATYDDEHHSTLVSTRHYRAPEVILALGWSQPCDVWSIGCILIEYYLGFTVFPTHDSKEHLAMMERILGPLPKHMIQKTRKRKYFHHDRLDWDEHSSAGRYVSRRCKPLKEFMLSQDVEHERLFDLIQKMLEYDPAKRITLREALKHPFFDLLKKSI

COc1cc(S(=O)(=O)N2CCC(N3CCOCC3)CC2)ccc1Nc1cc(C2CC2)c2c(C(F)(F)F)c[nH]c2n1 [Example 223, 4-cyclopropyl-N-(2-methoxy-4-((4-morpholinopiperidin-1-yl)sulfonyl)phenyl)-3-(trifluoromethyl)-1H-pyrrolo[2,3-b]pyridin-6-amine]
IC50 [1]: < 100 nM | IC50 [2]: < 100 nM | IC50 [3]: < 100 nM | IC50 [4]: < 100 nM | GI50 (MDA-MB-231 cell line): 301 to 1000 nM | GI50 (SHP-77): 301 to 1000 nM | inhibition at 0.25 µM (human DYRK1A and Tau; 0.25 uM): 4.6% | inhibition at 0.5 µM (human DYRK1A and Tau; 0.5 uM): 12.9% | inhibition at 1 µM (human DYRK1A and Tau; 1 uM): 29% | IC50 (TTK): < 100 nM
